The values below come from ChEMBL document CHEMBL1126379, “Pyrrole analogues of the pyrrolidinone moiety of the potassium channel activator cromakalim as relaxants of guinea pig trachealis” (Bioorg Med Chem Lett, 1992).

The species entered for assay [1] is Cavia porcellus. As to the kind of experiment: Relaxant activity expressed as in vitro inhibition of tone in guinea pig trachealis. It counts as functional.
Assay [2] is filed under the species Cavia porcellus. Nature of the assay: Inhibition of tone in guinea pig trachealis. It counts as functional.

A value given as a limit tells only on which side of the number the result lay.

As for `CC1(C)C=C(n2ccc(C#N)c2)c2cc(C#N)ccc2O1`, the half-maximal inhibitory concentration (IC50) in assay [1] was determined as 2.4 µM. For the same compound, the Intrinsic activity in assay [2] is given as 0.89.

`CC1OC2=C(c3cc(C#N)ccc3OC2(C)C)n2cccc21` (stereo not drawn): in assay [1], the concentration for half-maximal inhibition (IC50) amounted to 1.37 µM. The compound further came in with an Intrinsic activity in assay [2] of 0.8.

`CC1(C)C=C(n2ccc([N+](=O)[O-])c2)c2cc(C#N)ccc2O1` came in with an IC50 in assay [1] of 1.02 µM. The Intrinsic activity in assay [2] is on record as 0.79.

Regarding `CC(=O)c1cccn1C1=CC(C)(C)Oc2ccc(C#N)cc21`, the IC50 in assay [1] was greater than 20 µM. The compound further yielded an Intrinsic activity in assay [2] of 0.22.

For the compound `CC1(C)Oc2ccc(C#N)cc2[C@@H](n2cccc2[N+](=O)[O-])[C@@H]1O`, the concentration for half-maximal inhibition (IC50) in assay [1] was found to be 0.37 µM. The Intrinsic activity in assay [2] worked out at 0.88.

`CCc1cccn1C1=CC(C)(C)Oc2ccc(C#N)cc21` returned an IC50 in assay [1] greater than 20 µM. For the same compound, the Intrinsic activity in assay [2] was 0.32.

For the compound `CC1(C)C=C(n2cccc2)c2cc(C#N)ccc2O1`, the IC50 in assay [1] is 4.08 µM. In assay [2], this compound returned an Intrinsic activity of 0.78.

In assay [1], `CC1(C)Oc2ccc(C#N)cc2[C@H]2n3cccc3[C@@H](C(F)(F)F)O[C@]21O` came in with an IC50 of 0.08 µM. Moreover, the Intrinsic activity in assay [2] is recorded as 0.96.

Compound `CC(=O)N[C@@H]1c2cc(C#N)ccc2OC(C)(C)[C@H]1O` returned a half-maximal inhibitory concentration (IC50) in assay [1] of 2.9 µM. In assay [2], the Intrinsic activity is 0.78.

The compound `CC1(C)Oc2ccc(C#N)cc2C2=C1OC(c1ccccc1)c1cccn12` (stereo not drawn) displayed a half-inhibitory concentration (IC50) in assay [1] greater than 2 µM. In assay [2], this compound had an Intrinsic activity of 0.21.

For the compound `CC1(C)Oc2ccc(C#N)cc2[C@@H](n2cccc2C(=O)C(F)(F)F)[C@@H]1O`, the IC50 in assay [1] is greater than 20 µM. In assay [2], this compound came in with an Intrinsic activity of 0.28.

The compound `CC1(C)C=C(n2cccc2C(=O)C(F)(F)F)c2cc(C#N)ccc2O1` registered a 50% inhibitory concentration (IC50) in assay [1] of 0.69 µM. The Intrinsic activity in assay [2] was 0.91.

`CC1(C)C=C(n2cccc2[N+](=O)[O-])c2cc(C#N)ccc2O1` returned an IC50 in assay [1] of 0.69 µM. Also, the Intrinsic activity in assay [2] stood at 0.88.

`CC1(C)Oc2ccc(C#N)cc2[C@@H](n2cccc2)[C@@H]1O`: the IC50 in assay [1] is greater than 20 µM. For the same compound, the Intrinsic activity in assay [2] is reported as 0.19.

Regarding `C/C(=C\C#N)N[C@@H]1c2cc(C#N)ccc2OC(C)(C)[C@H]1O`, the 50% inhibitory concentration (IC50) in assay [1] was determined as 1.23 µM. Further, the Intrinsic activity in assay [2] was 0.96.

Consider `CC1(C)Oc2ccc(C#N)cc2[C@H]2n3cccc3CO[C@]21O`, for which, in assay [1], 10.4 µM corresponded to half-maximal inhibition (IC50). The compound further returned an Intrinsic activity in assay [2] of 0.85.

Regarding `CC1(C)Oc2ccc(C#N)cc2[C@@H](N2CCCC2=O)[C@@H]1O` [CROMAKALIM], in assay [2], the Intrinsic activity is 0.89.
